# Biological target: β-adrenergic receptors (guinea pig right atria and guinea pig tracheal strips)
# Assay: Beta-blocking activity in vitro: guinea pig right atria and tracheal strips, shift of isoproterenol concentration-response curves (pA2)
# Details: β-blockade of isoproterenol response, 60-minute incubation, 37 °C; pA2 (-log KB) by method of Furchgott; tissue (atria or trachea) not stated in Table 1
# Procedure: Several of the compounds of the present invention were tested for β-blocking activity in vitro using guinea pig right atria and guinea pig tracheal strips mounted in a tissue bath containing oxygenated (95% O2 -5% CO2) Krebs physiological salt solution at 37° C. Each tissue was suspended between a fixed glass rod and a Statham Universal Transducer connected to a Beckman recorder. Atria were allowed to beat spontaneously under a loading tension of approximately 0.5 gm. Intrinsic depressant or stimulant activity was determined for each compound by progressively increasing concentrations in the tissue baths at 60-minute intervals. Tissues were not washed between increments. The maximum concentration showing little or no cardiodepressant activity was chosen for blockade experiments. Changes in rate in response to isoproterenol, a standard β-receptor agonist, were measured in the absence and presence of test compounds. Spiral strips of guinea pig trachea were suspended under 5 gm resting tension and incubated with phentolamine, tropolone and cocaine. Active tension was generated by addition of carbachol (3.0×10^-7 M) and decreases in tension in response to isoproterenol were quantitated. Cumulative concentration-response curves were produced with isoproterenol both before and after 60-minute incubation of test compounds with atria and trachea. Compounds with β-blocking activity shifted concentration-response curves to the right. The blocking potency of test compounds was estimated by computing pA2 values (-log […]) by the method of Furchgott, the Pharmacological Differentiation of Adrenergic Receptors, Ann. N.Y. Acad. Sci., 139:553-570 (1967). […] The degree of cardioselectivity was estimated from the ratio, kβ trachea/Kβ atria (10^(pA.sbsp.2^atria-pA.sbsp.2^trachea)). A ratio greater than one indicates cardioselectivity. Test drugs were dissolved in distilled water and added to the bath (30 mL) in a volume of 10 or 100 μL. All of the test compounds are active β-blockers. [drawing 10]
row,pA2,SMILES
1,6.9,CC(C)C(=O)NCC(C)(C)NCC(O)COC(=O)C1CC=CCC1 (stereo not shown) [Compound 9]
2,8.1,CC(C)(CNC(=O)N1CCCCC1)NCC(O)COC(=O)C1CC1 (stereo not shown) [Compound 10]
3,8.0,CC(C)(CNC(=O)N1CCOCC1)NCC(O)COC(=O)C1CC1 (stereo not shown) [Compound 11]
4,7.3,CC(C)(CNC(=O)C1CCOC1)NCC(O)COC(=O)/C=C/c1ccccc1 (stereo not shown) [Compound 12]

# Continued, compound first:
row,SMILES,pA2
1,CC(C)(C)NCC(O)COC(=O)C1CC1 (stereo not shown) [Compound 2],6.5
2,CC(C)(C)NCC(O)COC(=O)C(C)(C)C (stereo not shown) [Compound 3],5.3
3,CC(C)(C)NCC(O)COC(=O)C1CCC1 (stereo not shown) [Compound 4],5.0
4,CC(C)C(=O)NCC(C)(C)NCC(O)COC(=O)C(C)(C)C (stereo not shown) [Compound 5],6.5
5,CC(C)C(=O)NCC(C)(C)NCC(O)COC(=O)C1CCC1 (stereo not shown) [Compound 7],6.5
6,CC(C)C(=O)NCC(C)(C)NCC(O)COC(=O)C1=CCCC1 (stereo not shown) [Compound 8],7.6
